Measurements taken from PubChem BioAssay AID330 (DTP/NCI, 2004).
Where “and” joins values, the source holds several entries; their conditions need not be identical. Identical values can stand only once. Inconclusive results and toxic doses are left out. Rule for the calls: active = survival T/C of 150% or more; inactive = T/C below 125% in these data. Square brackets hold non-standard residues; d marks the D form. Peptide text beside a SMILES is read from it. ξ: configuration not given here. Ac5c = NC1(C(=O)O)CCCC1; ξP = O=C(O)C1CCCN1

System: P388 leukemia ip, CD2F1 mice, survival T/C
Test: NCI In Vivo Anticancer Drug Screen. Data for tumor model P388 Leukemia (intraperitoneal) in CD2F1 (CDF1) mice
Settings: endpoint: median survival time, higher = longer survival
Summary of the method: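 Mice carrying the transplanted tumor received test compound or vehicle. Survival was recorded in each group, and the value is the treated-group measurement divided by that of the vehicle-treated control group.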

[1] = dose: 50.0 mg/kg/injection, schedule: Q01DX005 (ip), vehicle: saline with Tween-80
[2] = dose: 100.0 mg/kg/injection, schedule: Q01DX005 (ip), vehicle: saline with Tween-80
[3] = dose: 50.0 mg/kg/injection, schedule: Q01DX005 (ip), vehicle: Klucel (hydroxypropylcellulose) (HPC)
[4] = dose: 100.0 mg/kg/injection, schedule: Q01DX005 (ip), vehicle: Klucel (hydroxypropylcellulose) (HPC)
[5] = dose: 200.0 mg/kg/injection, schedule: Q01DX005 (ip), vehicle: Klucel (hydroxypropylcellulose) (HPC)
[6] = dose: 50.0 mg/kg/injection, schedule: Q01DX009 (ip), vehicle: Klucel (hydroxypropylcellulose) (HPC)
[7] = dose: 100.0 mg/kg/injection, schedule: Q01DX009 (ip), vehicle: Klucel (hydroxypropylcellulose) (HPC)
[8] = dose: 200.0 mg/kg/injection, schedule: Q01DX009 (ip), vehicle: Klucel (hydroxypropylcellulose) (HPC)

Measured: T/C

CN(C)C1C(=O)C(C(=O)NP(=O)(NCCCO)N(CCCl)CCCl)=C(O)C2(O)C(=O)C3=C(O)c4c(O)cccc4C(C)(O)C3CC12 (centres undefined)
inactive: dose: 0.25 mg/kg/injection, schedule: Q01DX005 (ip), vehicle: saline 92 % of control | dose: 0.5 mg/kg/injection, schedule: Q01DX005 (ip), vehicle: saline 102 % of control | dose: 1.0 mg/kg/injection, schedule: Q01DX005 (ip), vehicle: saline 104 % of control | dose: 2.0 mg/kg/injection, schedule: Q01DX005 (ip), vehicle: saline 100 % of control | dose: 3.13 mg/kg/injection, schedule: Q04DX003 (ip), vehicle: saline 98 % of control | dose: 4.0 mg/kg/injection, schedule: Q01DX005 (ip), vehicle: saline 101 % of control | dose: 6.25 mg/kg/injection, schedule: Q04DX003 (ip), vehicle: saline 102 % of control | dose: 8.0 mg/kg/injection, schedule: Q01DX005 (ip), vehicle: saline 101 % of control | dose: 12.5 mg/kg/injection, schedule: Q04DX003 (ip), vehicle: saline 103 % of control | dose: 25.0 mg/kg/injection, schedule: Q04DX003 (ip), vehicle: saline 107 % of control | dose: 50.0 mg/kg/injection, schedule: Q04DX003 (ip), vehicle: saline 108 % of control

CCO/C=C1/N=C(c2cccc3ccccc23)OC1=O
inactive: dose: 60.0 mg/kg/injection, schedule: Q01DX005 (ip), vehicle: saline with Tween-80 99 % of control | dose: 120.0 mg/kg/injection, schedule: Q01DX005 (ip), vehicle: saline with Tween-80 99 % of control | dose: 240.0 mg/kg/injection, schedule: Q01DX005 (ip), vehicle: saline with Tween-80 99 % of control

CCCCC(CC)CN1CN(CC(CC)CCCC)CC(C)(N)C1 (centres undefined)
inactive: [1] 100 % of control | [2] 98 % of control

Cc1ccc(NC(=O)C(=O)C(C#N)c2c(Cl)cccc2Cl)c(C)c1 (centres undefined)
inactive: [1] 102 % of control | [2] 105 % of control | dose: 200.0 mg/kg/injection, schedule: Q01DX005 (ip), vehicle: saline with Tween-80 105 % of control

COc1ccc2c3c([nH]c2c1)C(C)N(S(=O)(=O)c1ccccc1)CC3 (centres undefined)
inactive: dose: 12.5 mg/kg/injection, schedule: Q01DX005 (ip), vehicle: Klucel (hydroxypropylcellulose) (HPC) 98 % of control | dose: 25.0 mg/kg/injection, schedule: Q01DX005 (ip), vehicle: Klucel (hydroxypropylcellulose) (HPC) 92 % of control | [3] 98 % of control | [4] 98 % of control | [5] 93 % of control

NC(CSSCC(N)C(=O)c1ccccc1)C(=O)c1ccccc1 (centres undefined)
inactive: [3] 98 % of control | [4] 98 % of control | [5] 105 % of control

c1ccc2c(c1)N=Nc1ccccc1OCCOCCOCCO2
inactive: dose: 25.0 mg/kg/injection, schedule: Q01DX001 (ip), vehicle: saline with Tween-80 103 % of control | dose: 50.0 mg/kg/injection, schedule: Q01DX001 (ip), vehicle: saline with Tween-80 102 % of control | dose: 100.0 mg/kg/injection, schedule: Q01DX001 (ip), vehicle: saline with Tween-80 92 % of control

CCOC(=O)C1=C(C)NC(C)=C(C(=O)OCC)C1c1ccccn1
inactive: [6] 99 % of control | [7] 97 % of control | [8] 96 % of control

CC(=O)OC1(C)CC2(CCCCC2)N=N1 (centres undefined)
inactive: dose: 12.5 mg/kg/injection, schedule: Q01DX009 (ip), vehicle: other 100 % of control | dose: 25.0 mg/kg/injection, schedule: Q01DX009 (ip), vehicle: other 113 % of control | dose: 50.0 mg/kg/injection, schedule: Q01DX009 (ip), vehicle: other 98 % of control | dose: 100.0 mg/kg/injection, schedule: Q01DX009 (ip), vehicle: other 111 % of control and 91 % of control | dose: 200.0 mg/kg/injection, schedule: Q01DX009 (ip), vehicle: other 107 % of control | dose: 400.0 mg/kg/injection, schedule: Q01DX009 (ip), vehicle: other 113 % of control

Cc1c(C(=O)O)no[n+]1[O-]
inactive: dose: 60.0 mg/kg/injection, schedule: Q01DX005 (ip), vehicle: saline 101 % of control | dose: 120.0 mg/kg/injection, schedule: Q01DX005 (ip), vehicle: saline 93 % of control | dose: 240.0 mg/kg/injection, schedule: Q01DX005 (ip), vehicle: saline 93 % of control

NC1(C(=O)N2CCCC2C(=O)O)CCCC1 (centres undefined) (H-[Ac5c]-[ξP]-OH)
inactive: dose: 50.0 mg/kg/injection, schedule: Q01DX005 (ip), vehicle: saline 96 % of control | dose: 100.0 mg/kg/injection, schedule: Q01DX005 (ip), vehicle: saline 89 % of control | dose: 200.0 mg/kg/injection, schedule: Q01DX005 (ip), vehicle: saline 108 % of control

O=[N+]([O-])c1cc[n+]([O-])c(Cl)c1
inactive: dose: 25.0 mg/kg/injection, schedule: Q01DX009 (ip), vehicle: Klucel (hydroxypropylcellulose) (HPC) 91 % of control | [6] 96 % of control | [7] 94 % of control | [8] 101 % of control
